Source: patent US12466834B2, “Imidazodiazepinediones and methods of use thereof” (GFB (ABC), LLC, priority 2018, dated 2025)

Target: T1, human TRPC5 (Homo sapiens, UniProt Q9UL62)
T1 construct: expressed in transfected cells
T1 sequence (Q9UL62 1-973): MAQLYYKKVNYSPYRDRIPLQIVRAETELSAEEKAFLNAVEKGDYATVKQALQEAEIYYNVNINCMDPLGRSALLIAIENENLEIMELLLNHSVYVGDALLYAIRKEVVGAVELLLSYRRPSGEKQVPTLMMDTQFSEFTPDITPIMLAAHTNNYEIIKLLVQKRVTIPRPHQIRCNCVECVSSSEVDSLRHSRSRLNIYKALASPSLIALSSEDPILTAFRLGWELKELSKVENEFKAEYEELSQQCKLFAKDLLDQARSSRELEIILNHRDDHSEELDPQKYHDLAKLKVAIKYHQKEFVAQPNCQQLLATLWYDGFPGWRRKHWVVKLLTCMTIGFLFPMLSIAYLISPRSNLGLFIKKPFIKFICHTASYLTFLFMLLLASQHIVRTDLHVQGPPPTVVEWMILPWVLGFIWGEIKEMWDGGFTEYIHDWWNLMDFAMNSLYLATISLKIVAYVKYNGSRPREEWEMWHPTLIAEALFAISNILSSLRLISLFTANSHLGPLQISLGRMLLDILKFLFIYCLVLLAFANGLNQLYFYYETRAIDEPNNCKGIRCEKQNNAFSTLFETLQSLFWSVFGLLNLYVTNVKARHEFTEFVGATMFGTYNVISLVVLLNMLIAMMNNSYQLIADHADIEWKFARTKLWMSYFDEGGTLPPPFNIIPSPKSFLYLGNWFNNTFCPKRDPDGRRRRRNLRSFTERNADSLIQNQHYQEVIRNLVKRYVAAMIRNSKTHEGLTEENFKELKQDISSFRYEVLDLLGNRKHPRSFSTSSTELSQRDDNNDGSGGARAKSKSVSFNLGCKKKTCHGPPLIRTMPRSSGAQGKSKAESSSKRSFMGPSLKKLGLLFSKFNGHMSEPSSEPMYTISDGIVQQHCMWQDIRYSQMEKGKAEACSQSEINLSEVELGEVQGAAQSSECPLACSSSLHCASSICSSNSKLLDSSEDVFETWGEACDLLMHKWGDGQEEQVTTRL
Experiment: Automated patch clamp assay (QPatch), antagonist mode
Assay type: cell-based
Settings: HEK-TREx hTRPC5 cells; channel activated with Rosiglitazone 30 μM; normalised to ML-204 block; read-out: Qpatch Potency Range
Method: ICLN-1633 cells (HEK-TREx hTRPC5) expressing TRPC5 were generated as follows. Commercially available HekTrex-293 cells were seeded at 0.7×10^6 cells/well in a 1×6-well plate 24 hrs prior to transfection using 2 mL cell growth media containing no antibiotics (1× DMEM/high glucose (Hyclone #SH30022.02); 10% fetal bovine serum (Sigma) 2 mM sodium pyruvate, 10 mM HEPES). The human TRPC5 coding sequence (NM_012471 with a silent T478C mutation) was cloned into pcDNA5/TO (Invitrogen; Cat No. V103320) using hygromycin as the resistance gene and the plasmid (SEQ ID NO:1) propagated using T-Rex-293 cells (Invitrogen; Cat No. R71007) following manufacturer's directions. On day 2, 2 μg of plasmid DNA plus 6 μl of Xtreme-GENE HP reagent in Optimem (200 μl total volume) was prepared and incubated for 15 min at room temperature. This plasmid solution was then gently overlayed dropwise onto each well and the plate was gently swirled to mix complex with the media for approximately 30 seconds. Transfected cells were incubated at 37° C. in a 10% CO2 incubator for 24 hrs. The transfected cells were harvested and transferred into 2×150 mm dishes containing cell growth media with no antibiotics at 37° C.
The next day selection was initiated to generate a stable pool by adding cell growth media containing 150 μg/mL Hygromycin and 5 μg/mL Blasticidin and cells were allowed to grow. Media with the selection agent was changed every 1-2 days as needed to remove dead cells. After 7 days, the hygromycin concentration was reduced to 75 μg/mL and cells growth was allowed to continue.
Single clones were selected as follows. The stable pool was diluted to 10 cells/mL and seeded (100 μl/well) into 24×96 well plates (˜1 cell/well) and allowed to grow for 7 days in cell growth media. Fresh media (100 μl) was added and the cells allowed to grow for another 1-2 weeks and then stored frozen or used immediately.
The automated electrophysiological assay was carried out at room temperature. On the day of the experiment, TRPC5 cells were cultured according to our Standard Operating Procedure. Briefly, cells were harvested using TrypLE™ Express, re-suspended in serum free medium, added to the automated platform and used within 0.5-3 hours. Internal and external physiological solutions were freshly prepared prior to the assay. The external solution contained: 145 mM NaCl, 4 mM KCl, 2 mM CaCl2, 1 mM MgCl2, 10 mM HEPES, 10 mM glucose, pH 7.4 with NaOH and 310 mOsm/L. The internal solution contained 120 mM L-aspartic acid, 120 mM CsOH·H2O, 20 mM CsCl, 2 mM MgCl2, 8.8 mM CaCl2, 10 mM EGTA, 10 mM HEPES and 2 mM Na2ATP; pH 7.2 with CsOH and 330 mOsm/L. The free internal Ca^2+ concentration was buffered to 1 μM, according to the WCabuf software. The automated electrophysiological platform QPatch 16 from Sophion (Denmark) was used to carry out the compounds profiling. The series resistance and quality of seals were continuously monitored during the experiments. Data were analyzed using Sophion QPatch assay software 5.6 (Odense). Data were normalized using the maximum activation obtained during the pre-compound agonist application as the top value (1.0) and maximum inhibition induced by ML-204 as the bottom value (0.0). IC50 values were calculated using a least squares regression algorithm (Hill equation).
To monitor the ion currents, a voltage ramp from −100 mV to +100 mV, over 300 ms, was applied every 10 seconds, from a holding potential of −60 mV. Antagonist-mode: After recording for a minimum of 60 seconds control period, the EC60 concentration of the TRPC5 agonist, Rosiglitazone (30 μM), was applied to activate the channel. After reaching steady-state, co-application of increasing concentrations of test compound were applied followed by two applications of Rosiglitazone EC60 and a saturating concentration of the specific blocker ML-204 (100 μM).

IC50 [µM] | SMILES
1 to 30 | O=C1c2c(nc(Oc3cccc(OC(F)(F)F)c3)n2Cc2ccc(Cl)cc2)N2CCC[C@@H]2C(=O)N1CCCO (single isomer, unassigned) [Compound 23]
> 30 | C[C@@H]1C(=O)N(C)c2nc(Oc3cccc(F)c3)n(Cc3ccc(Cl)cc3)c2C(=O)N1CCCO (single isomer, unassigned) [Compound 19]
1 to 30 | CN1CC(=O)N(CCCO)C(=O)c2c1nc(Oc1cccc(OC(F)(F)F)c1)n2Cc1ccc(Cl)cc1 [Compound 21, 1-[(4-chlorophenyl)methyl]-7-(3-hydroxypropyl)-4-methyl-2-[3-(trifluoromethoxy)phenoxy]-1H,4H,5H,6H,7H,8H-imidazo[4,5-e][1,4]diazepine-6,8-dione]
> 30 | O=C1c2c(nc(Oc3cccc(OC(F)(F)F)c3)n2Cc2ccc(Cl)cc2)N2CCC[C@H]2C(=O)N1CCCO (single isomer, unassigned) [Compound 22]
